How the values were obtained:
Assay type in all cases: in vivo
[1] = system: Erysiphe graminis f. sp. tritici; experiment: Test A: preventive spray on wheat seedlings, wheat powdery mildew, disease rating; details: wheat seedlings sprayed to run-off, inoculated the following day with Erysiphe graminis f. sp. tritici, rated after 7 days at 20° C.; test concentration not given
In short: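 Preventive test: Erysiphe graminis f. sp. tritici spore dust applied one day after run-off spraying of seedlings with acetone/water/surfactant suspension, 200 ppm equating to 500 g/ha. Plants held 7 days at 20 °C; ratings give % disease control versus controls, 100 full, 0 none.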

Puccinia recondita = experiment: Test B: preventive spray on wheat seedlings, wheat leaf rust, disease rating; details: wheat seedlings sprayed to run-off, inoculated the following day with Puccinia recondita, 24 h saturated atmosphere then 6 days at 20° C.; test concentration not given
In short: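 Preventive test: seedlings inoculated with Puccinia recondita one day after run-off spraying with test suspension (acetone/water, 250 ppm Trem 014; 200 ppm equals 500 g/ha). Rating after 24 h at 20° C in saturation plus 6 days in 20° C growth chamber; 0–100 scale versus controls.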

Septoria nodorum = experiment: Test C: preventive spray on wheat seedlings, Septoria glume blotch, disease rating; details: wheat seedlings sprayed to run-off, inoculated the following day with Septoria nodorum, 48 h saturated atmosphere then 9 days at 20° C.; test concentration not given
In short: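 Preventive test: one day after spraying (to run-off; 200 ppm ≈ 500 g/ha, in acetone/water with 250 ppm surfactant), seedlings received a S. nodorum spore suspension. After 48 h in saturated air and 9 days in a growth chamber, both at 20° C., % disease control versus controls was scored.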

| SMILES | Test A disease control rating (100 = 100% disease control, 0 = no disease control relative to the controls) [1] [%] | Test B disease control rating (100 = 100% disease control, 0 = no disease control relative to the controls) (Puccinia recondita) [%] | Test C disease control rating (100 = 100% disease control, 0 = no disease control relative to the controls) (Septoria nodorum) [%] |
| --- | --- | --- | --- |
| Cc1cc(OCCCC(C)C)c(C)cc1N=CN(C)C [compound 132] | 98 | 100 | 97 |
| Cc1cc(OCCCC(C)(C)C)c(C)cc1N=CN(C)C [Compound 50] | 99 | 67 | 100 |
| Cc1c(NC(=S)N(C)C)cc(Cl)c(OCCC[Si](C)(C)C)c1Cl [compound 180] | 75 | 58 | 0 |
| CCCCC(CCCC)Sc1cc(C)c(N=C(C)N(C)C)cc1C [compound 143] | 0 | 0 | 80 |
| C=CCN(C)C=Nc1cc(Cl)c(OCCC[Si](C)(C)C)cc1C [compound 56] | 100 | 100 | 100 |
| Cc1cc(SC(CCC(C)C)CCC(C)C)c(C)cc1N=CN(C)C [compound 159] | 94 | 100 | 47 |
| Cc1cc(OCCC[Si](C)(C)C)c(Cl)cc1NC(=S)N(C)C [compound 168] | 99 | 100 | 100 |
| C=CCN(C)C(=S)Nc1cc(C)c(OCCC[Si](C)(C)C)cc1C [compound 86] | 100 | 99 | 100 |
| CC(C)CCCOc1cc(Cl)c(N=CN(C)C)cc1Cl [compound 126] | 95 | 40 | 100 |
| CCCCC(CCC)Oc1cc(C)c(N=CN(C)C)cc1C (stereo not drawn) [Compound 29] | 99 | 100 | 58 |
| CCC(CCC(C)C)Oc1cc(C)c(N=CN(C)C)cc1C (stereo not drawn) [Compound 31] | 93 | 100 | 53 |
| CCC(CCC(C)C)Oc1cc(C)c(N=C(C)N(C)C)cc1C (stereo not drawn) [compound 100] | 0 | 86 | 76 |
| CC(=Nc1cc(Cl)c(OCCCC(C)C)c(Cl)c1C)N(C)C [compound 116] | 87 | 92 | 100 |
| CCN(C)C=Nc1cc(Cl)c(OCCC[Si](C)(C)C)c(Cl)c1C [compound 182] | 98 | 79 | 67 |
| CCCC(CCC(C)C)Nc1cc(C)c(N=CN(C)C)cc1C (stereo not drawn) [compound 148] | 0 | 0 | 47 |
| CCN(C)C(=S)Nc1cc(C)c(OCCC[Si](C)(C)C)c(Cl)c1C [compound 134] | 100 | 100 | 81 |

Source: US20050182025A1, “Amidinylphenyl compounds and their use as fungicides” (priority 2002, published 2005)
